In US20230183243A1, “HETEROARYL DERIVATIVES AND PHARMACEUTICAL COMPOSITION COMPRISING SAME AS ACTIVE INGREDIENT” (VORONOI INC., priority 2019, published 2023):
Structures can show the parent of a compound that is named as a salt.

Tests used:
[1] = test system: MDA-MB-231 cells; assay: Inhibition of proliferation of triple-negative breast cancer cells, CellTiter-Glo; assay type: cell-based; conditions: Homo sapiens, 120 h; MDA-MB-231, cultured for 5 days
Outline: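 MDA-MB-231 cells pre-cultured 24 h (5% CO2, 37 °C), then exposed to compound for 5 days at 12 three-fold dilutions, final 10 μM to 0.05 nM. Viability read by CellTiter-Glo luminescence after 10 min at 37 °C; growth inhibition calculated relative to untreated solvent-control cells.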

[2] = biological target: T1, TTK (Homo sapiens, UniProt P33981); assay: TTK enzyme activity, ADP-Glo kinase assay; assay type: biochemical; design: purchased SignalChem T20-10G; conditions: purified human TTK, ATP 10 μM, 25° C., 2 hours
T1 sequence (P33981 1-857): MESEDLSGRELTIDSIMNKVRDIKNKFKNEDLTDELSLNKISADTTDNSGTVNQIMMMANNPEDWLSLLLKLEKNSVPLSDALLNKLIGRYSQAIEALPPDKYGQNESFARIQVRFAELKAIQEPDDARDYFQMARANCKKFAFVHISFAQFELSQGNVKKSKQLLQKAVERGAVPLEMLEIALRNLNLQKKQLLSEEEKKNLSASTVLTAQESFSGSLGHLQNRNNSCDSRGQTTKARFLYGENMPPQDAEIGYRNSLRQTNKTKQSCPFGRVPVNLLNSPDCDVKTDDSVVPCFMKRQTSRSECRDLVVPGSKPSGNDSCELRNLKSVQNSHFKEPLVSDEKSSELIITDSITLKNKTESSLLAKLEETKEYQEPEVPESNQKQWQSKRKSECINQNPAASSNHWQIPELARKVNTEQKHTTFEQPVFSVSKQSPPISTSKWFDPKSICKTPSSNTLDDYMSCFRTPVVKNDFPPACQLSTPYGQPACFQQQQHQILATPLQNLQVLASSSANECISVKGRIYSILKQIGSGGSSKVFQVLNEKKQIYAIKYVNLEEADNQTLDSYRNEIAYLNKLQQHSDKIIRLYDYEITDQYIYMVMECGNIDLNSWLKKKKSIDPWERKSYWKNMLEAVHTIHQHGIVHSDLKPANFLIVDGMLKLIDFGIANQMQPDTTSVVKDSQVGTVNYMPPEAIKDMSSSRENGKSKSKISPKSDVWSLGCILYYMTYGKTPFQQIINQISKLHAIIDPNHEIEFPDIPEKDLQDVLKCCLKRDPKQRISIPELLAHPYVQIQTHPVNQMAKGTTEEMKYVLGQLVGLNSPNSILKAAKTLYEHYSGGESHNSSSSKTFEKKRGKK
Outline: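 Purified human TTK (25 ng) incubated with 10 μM ATP and substrate (0.2 μg) for 2 h at 25 °C in Tris-HCl pH 7.4, MgCl2, BSA, DTT buffer. ADP formation read by ADP-Glo; inhibition calculated against untreated solvent control.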

[3] = test system: SHP-77; assay: Inhibition of proliferation of small cell lung cancer cells, CellTiter-Glo; assay type: cell-based; conditions: Homo sapiens, SHP77, 120 h; SHP-77, cultured for 5 days
Description: Specifically, the following test was performed to evaluate the inhibitory activity of the compound according to the present invention against the cell proliferation in the SCLC cells.
To check an inhibitory ability of cell growth in one SCLC cell line, a test was performed as follows. Cells were seeded in 180 μL of a culture broth at a density of 2,000 to 3,000 cells/well in a white clear bottom 96-well plate (Corning) according to the growth ability of each cell, and then cultured for 24 hours under conditions of 5% CO2 and 37° C. Thereafter, the compound was prepared by diluting a 10 mM stock solution three-fold with 100% DMSO at a total of 12 concentrations so that a peak concentration of the compound was in a range of 10 mM to 0.05 μM, and the diluted compound was then diluted in each cell culture medium so that a final concentration of the compound was in a range of 100 μM to 0.5 nM. 20 μL of a diluted solution diluted with a medium was added to the cell solution in which cells were seeded in the 96-well plate on the previous day so that a final concentration of the diluted solution was in a range of 10 μM to 0.05 nM. Each of the cells was cultured for 5 days. To check cell viability, a mixture provided in aCellTiter-Glo® Luminescent Cell Viability Assay Kit (Promega) was added to each of the cultured cell media, and cultured for another 10 minutes under a condition of 37° C. Then, a degree of luminescence (fluorescence) was measured. A degree of inhibition of the cell growth according to the treatment concentration of each of the compounds was calculated based on the fluorescence of the solvent control cells which were not treated with the compound. In this case, the concentration of each of the compounds inhibiting 50% of the cell growth was determined to be a GI50 (nM) value, and calculated using Prism (Version 7.01; GraphPad) software.

Row | Structure (SMILES) | GI50 [1] | IC50 [2] | GI50 [3]
1 | COc1cc(-c2ccnn2C)ccc1Nc1nc(NC2CCCC2)c2c(C#N)c[nH]c2n1 [Example 16, 4-(cyclopentylamino)-2-((2-methoxy-4-(1-methyl-1H-pyrazol-5-yl)phenyl)amino)-7H-pyrrolo[2,3-d] pyrimidine-5-carbonitrile] | < 100 nM | < 50 nM | < 100 nM
2 | N#Cc1c[nH]c2nc(Nc3ccc(N4CCCS4(=O)=O)c(F)c3)nc(NC3CCOCC3)c12 [Example 29] | 100 to 1000 nM | < 50 nM | 100 to 1000 nM
3 | Cn1nccc1-c1ccc(Nc2nc(NC3CCCC3)c3c(C#N)c[nH]c3n2)c2c1OCCO2 [Example 38, 4-(cyclopentylamino)-2-((8-(1-methyl-1H-pyrazol-5-yl)-2,3-dihydrobenzo[b][1,4]dioxin-5-yl)amino)-7H-pyrrolo[2,3-d] pyrimidine-5-carbonitrile] | < 100 nM | < 50 nM | < 100 nM
4 | Cn1nccc1-c1ccc(Nc2nc(NC3CCOCC3)c3c(C#N)c[nH]c3n2)c2c1OCCO2 [Example 40, 2-((8-(1-methyl-1H-pyrazol-5-yl)-2,3-dihydrobenzo[b][1,4]dioxin-5-yl)amino)-4-((tetrahydro-2H-pyran-4-yl)amino)-7H-pyrrolo[2,3-d] pyrimidine-5-carbonitrile] | < 100 nM | < 50 nM | < 100 nM
5 | COCCNc1nc(Nc2ccc(-c3ccnn3C)c3c2OCCO3)nc2[nH]cc(C#N)c12 [Example 49, 4-((2-methoxyethyl)amino)-2-((8-(1-methyl-1H-pyrazol-5-yl)-2,3-dihydrobenzo[b][1,4]dioxin-5-yl)amino)-7H-pyrrolo[2,3-d] pyrimidine-5-carbonitrile] | < 100 nM | < 50 nM | < 100 nM
6 | Cn1nccc1-c1ccc(Nc2nc(NCC3CCCC3)c3c(C#N)c[nH]c3n2)c2c1OCCO2 [Example 50, 4-((cyclopentylmethyl)amino)-2-((8-(1-methyl-1H-pyrazol-5-yl)-2,3-dihydrobenzo[b][1,4]dioxin-5-yl)amino)-7H-pyrrolo[2,3-d] pyrimidine-5-carbonitrile hydrochloride] | < 100 nM | 50 to 200 nM | < 100 nM
7 | N#Cc1c[nH]c2nc(Nc3ccc(N4CCCCS4(=O)=O)c(F)c3)nc(NC3CCCC3)c12 [Example 57, 4-(cyclopentylamino)-2-((4-(1,1-dioxido-l,2-thiazinan-2-yl)-3-fluorophenyl)amino)-7H-pyrrolo[2,3-d] pyrimidine-5-carbonitrile] | 100 to 1000 nM | 50 to 200 nM | < 100 nM
8 | N#Cc1c[nH]c2nc(Nc3ccc(N4CCCCS4(=O)=O)c(F)c3)nc(NC3CCOCC3)c12 [Example 58, 2-((4-(1,1-dioxido-1,2-thiazinan-2-yl)-3-fluorophenyl)amino)-4-((tetrahydro-2H-pyran-4-yl)amino)-7H-pyrrolo[2,3-d] pyrimidine-5-carbonitrile] | < 100 nM | < 50 nM | < 100 nM
9 | Cn1nccc1-c1ccc(Nc2nc(NC3CCCCCC3)c3c(C#N)c[nH]c3n2)c2c1OCCO2 [Example 59, 4-(cycloheptylamino)-2-((8-(1-methyl-1H-pyrazol-5-yl)-2,3-dihydrobenzo[b][1,4]dioxin-5-yl)amino)-7H-pyrrolo[2,3-d] pyrimidine-5-carbonitrile] | < 100 nM | 200 to 1000 nM | < 100 nM
10 | Cn1nccc1-c1ccc(Nc2nc(NCC(C)(C)C)c3c(C#N)c[nH]c3n2)c2c1OCCO2 [Example 60, 2-((8-(1-methyl-1H-pyrazol-5-yl)-2,3-dihydrobenzo[b][1,4]dioxin-5-yl)amino)-4-(neopentylamino)-7H-pyrrolo[2,3-d] pyrimidine-5-carbonitrile] | < 100 nM | 50 to 200 nM | < 100 nM
11 | Cn1nccc1-c1ccc(Nc2nc(NC3C[C@H]4CC[C@@H]3C4)c3c(C#N)c[nH]c3n2)c2c1OCCO2 (stereo partly drawn) [Example 61, 4-(((1R,4S)-bicyclo[2.2.l]heptan-2-yl)amino)-2-((8-(1-methyl-1H-pyrazol-5-yl)-2,3-dihydrobenzo[b][1,4]dioxin-5-yl)amino)-7H-pyrrolo[2,3-d] pyrimidine-5-carbonitrile] | < 100 nM | 50 to 200 nM | < 100 nM
12 | CC(C)S(=O)(=O)CCNc1nc(Nc2ccc(-c3ccnn3C)c3c2OCCO3)nc2[nH]cc(C#N)c12 [Example 83, 4-((2-(isopropylsulfonyl)ethyl)amino)-2-((8-(1-methyl-1H-pyrazol-5-yl)-2,3-dihydrobenzo[b][1,4]dioxin-5-yl)amino)-7H-pyrrolo[2,3-d] pyrimidine-5-carbonitrile 2,2,2-trifluoroacetate] | 100 to 1000 nM | < 50 nM | 100 to 1000 nM
13 | Cn1nccc1-c1ccc(Nc2nc(NCCS(C)(=O)=O)c3c(C#N)c[nH]c3n2)c2c1OCCO2 [Example 84, 2-((8-(1-methyl-1H-pyrazol-5-yl)-2,3-dihydrobenzo[b][1,4]dioxin-5-yl)amino)-4-((2-(methylsulfonyl)ethyl)amino)-7H-pyrrolo[2,3-d] pyrimidine-5-carbonitrile] | > 1000 nM | < 50 nM | > 1000 nM
14 | CN(C)S(=O)(=O)CCNc1nc(Nc2ccc(-c3ccnn3C)c3c2OCCO3)nc2[nH]cc(C#N)c12 [Example 85, 2-((5-cyano-2-((8-(1-methyl-1H-pyrazol-5-yl)-2,3-dihydrobenzo[b][1,4]dioxin-5-yl)amino)-7H-pyrrolo[2,3-d]pyrimidin-4-yl)amino)-N,N-dimethylethane-1-sulfonamide] | 100 to 1000 nM | < 50 nM | < 100 nM
15 | COc1cc(-c2ccnn2C)ccc1Nc1cc(NC2CCCC2)c2c(C#N)c[nH]c2n1 [Example 87, 4-(cyclopentylamino)-6-((2-methoxy-4-(l-methyl-1H-pyrazol-5-yl)phenyl)amino)-1H-pyrrolo[2,3-b] pyridine-3-carbonitrile] | < 100 nM | 50 to 200 nM | < 100 nM
16 | Cn1nccc1-c1ccc(Nc2cc(NC3CCCC3)c3c(C#N)c[nH]c3n2)c2c1OCCO2 [Example 88, 4-(cyclopentylamino)-6-((8-(1-methyl-1H-pyrazol-5-yl)-2,3-dihydrobenzo[b][1,4]dioxin-5-yl)amino)-1H-pyrrolo[2,3-b] pyridine-3-carbonitrile] | < 100 nM | 50 to 200 nM | < 100 nM
17 | Cn1nccc1-c1ccc(Nc2nc(NC3COC3)c3c(C#N)c[nH]c3n2)c2c1OCCO2 [Example 160, 2-((8-(1-methyl-1H-pyrazol-5-yl)-2,3-dihydrobenzo[b][1,4]dioxin-5-yl)amino)-4-(oxetan-3-ylamino)-7H-pyrrolo[2,3-d] pyrimidine-5-carbonitrile] | > 1000 nM | – | > 1000 nM
18 | COc1cc(-c2ccnn2C)ccc1Nc1nc(NC2COC2)c2c(C#N)c[nH]c2n1 [Example 161, 2-((2-methoxy-4-(1-methyl-1H-pyrazol-5-yl)phenyl)amino)-4-(oxetan-3-ylamino)-7H-pyrrolo[2,3-d] pyrimidine-5-carbonitrile] | > 1000 nM | – | > 1000 nM
